Experiments:
3T3 Swiss Albino cells = test: In vitro toxicity test (MTT) on cell viability; format: cell-based; conditions: 0.02 μM, 48 hours
Description: METHODS: 3T3 Swiss Albino cells were cultured in 96-well plates. The cells were then administered with the extract combination of Lagerstroemia speciosa and Cinnamomum burmannii in a range of dose 1-10 μg/ml, pioglitazone and glimepiride (as control) for 48 hours to study the extract toxicity towards cells. Each well was added MTT reagent and the number of living cells was counted using a spectrometer.

[1] = tested on: insulin resistance adipocytes 3T3 Swiss Albino cells; test: Glucose uptake by insulin resistance adipocytes (anthrone reagent, spectrophotometer); format: cell-based; conditions: 5 μg/ml extract combination or 0.02 μM pioglitazone, 48 hours, from the initial 5% (untreated)
Description: FIG. 12 is the graphic of glucose measurement results obtained from insulin resistance adipocytes 3T3 Swiss Albino after administration of 5 μg/ml Lythraceae and Lauraceae family plant combination extracts or 0.02 μM pioglitazone and/or 25 nM insulin during 48 hours incubation, then incubation with 5 mg/ml glucose for 0, 2, 4, 6 hours. 3T3 Swiss Albino cells were differentiated until 3T3 Swiss Albino pre-adipocytes and 3T3 Swiss Albino adipocytes cells were obtained. Each cell type received excessive glucose for over 2 weeks. Incubated cells received such excessive glucose were used as insulin resistance model. After that, those four type cells obtained were tested for its ability to uptake glucose in media. The remaining glucose level was analyzed so that the glucose level uptaken by each 3T3 Swiss Albino cell type could be determined. To measure glucose level that was uptaken by cell, we used an experiment method which is initialized by culturing 3T3 Swiss Albino cells in 6 cm-diameter plates. […] Glucose concentration that was uptaken by cells was measured by subtracting the initial glucose concentration with the remaining glucose in media at the end of incubation time. […] The reaction result was quantified by spectrophotometer.

Structure (SMILES)	cell viability (3T3 Swiss Albino cells)	glucose level uptaken [1] [%]
CCC1=C(C)CN(C(=O)NCCc2ccc(S(=O)(=O)NC(=O)N[C@H]3CC[C@H](C)CC3)cc2)C1=O [glimepiride]	did not show any effect	–
CCc1ccc(CCOc2ccc(CC3SC(=O)NC3=O)cc2)nc1 (stereo not drawn) [pioglitazone]	did not show any effect	20

Source: patent publication US9345731B2, “Herbal extract as sensitivity enhancer toward insulin and antidiabetes” (PT. DEXA MEDICA, priority 2008, dated 2016)
